Measured values: publication PMC5780498, “Discovery of novel bacterial topoisomerase I inhibitors by use of in silico docking and in vitro assays” (Scientific Reports, 2018)
In brackets after ≈: the same amount, converted by molar mass. Like-named read-outs stand apart in the source and are kept apart here.

Tested on: M. smegmatis clone overexpressing recombinant MtbTopI (M+ strain)
Test: microbe, parasite or virus in culture
Type: cell-based, Mycobacterium smegmatis
Conditions: Mycolicibacterium smegmatis
[1] = 48 h, read-out: M+ Growth Inhibition (MIC)
[2] = read-out: M+ Growth Inhibition with TZ (MIC)

Structure (SMILES)	MIC [1]	MIC [2]
Cc1c(C(=O)N2CCC(c3nnc(-c4nccc5ccccc45)o3)CC2)oc2ccccc12 [Compound 2]	> 250 µM	62.5 µM (≈ 27.4 µg/mL)
COc1ccc2c(c1)NC1(CCN(C(=O)Cc3c[nH]c4ccccc34)CC1)NS2(=O)=O [Compound 3]	> 250 µM	62.5 µM (≈ 27.5 µg/mL)
Cc1ccc(CN2C[C@]34C=C[C@H](O3)C(C(=O)N3CCn5cccc5C3)C4C2=O)cc1C (stereo partly shown) [Compound 7]	> 500 µM	> 500 µM
Cc1cc2oc(C(=O)N3CCC(c4nc5ccccc5[nH]4)CC3)c(C)c2cc1C [Compound 8]	> 500 µM	31.3 µM (≈ 12.1 µg/mL)
Cc1ccc2[nH]c(C3CCN(C(=O)c4oc5ccc(C)cc5c4C)CC3)nc2c1 [Compound 9]	> 500 µM	31.3 µM (≈ 12.1 µg/mL)
Cc1ccc2oc(C(=O)N3CCC(O)(c4cccc(C(F)(F)F)c4)CC3)c(C)c2c1 [Compound 10]	> 500 µM	46.9 µM (≈ 19.6 µg/mL)
Cc1c(C(=O)N2CCCCC2CCc2ccc(O)cc2)oc2c(F)cccc12 (stereo not shown) [Compound 11]	> 500 µM	125 µM (≈ 47.7 µg/mL)
Cc1ccc2c(C)c(C(=O)N3CCC4(CC(=O)c5ccccc5O4)C3)oc2c1 (stereo not shown) [Compound 12]	> 500 µM	> 500 µM
